Consider 22 compounds from patent US11370761B2, “Voltage-dependent T-type calcium channel inhibitor” (Nippon Chemiphar Co., Ltd., priority 2017, dated 2022).

For the experiment, the target named is T1, human Cav3.2 channel (Homo sapiens, UniProt O95180).
T1 construct: expressed in transfected cells
T1 sequence (O95180 whole entry): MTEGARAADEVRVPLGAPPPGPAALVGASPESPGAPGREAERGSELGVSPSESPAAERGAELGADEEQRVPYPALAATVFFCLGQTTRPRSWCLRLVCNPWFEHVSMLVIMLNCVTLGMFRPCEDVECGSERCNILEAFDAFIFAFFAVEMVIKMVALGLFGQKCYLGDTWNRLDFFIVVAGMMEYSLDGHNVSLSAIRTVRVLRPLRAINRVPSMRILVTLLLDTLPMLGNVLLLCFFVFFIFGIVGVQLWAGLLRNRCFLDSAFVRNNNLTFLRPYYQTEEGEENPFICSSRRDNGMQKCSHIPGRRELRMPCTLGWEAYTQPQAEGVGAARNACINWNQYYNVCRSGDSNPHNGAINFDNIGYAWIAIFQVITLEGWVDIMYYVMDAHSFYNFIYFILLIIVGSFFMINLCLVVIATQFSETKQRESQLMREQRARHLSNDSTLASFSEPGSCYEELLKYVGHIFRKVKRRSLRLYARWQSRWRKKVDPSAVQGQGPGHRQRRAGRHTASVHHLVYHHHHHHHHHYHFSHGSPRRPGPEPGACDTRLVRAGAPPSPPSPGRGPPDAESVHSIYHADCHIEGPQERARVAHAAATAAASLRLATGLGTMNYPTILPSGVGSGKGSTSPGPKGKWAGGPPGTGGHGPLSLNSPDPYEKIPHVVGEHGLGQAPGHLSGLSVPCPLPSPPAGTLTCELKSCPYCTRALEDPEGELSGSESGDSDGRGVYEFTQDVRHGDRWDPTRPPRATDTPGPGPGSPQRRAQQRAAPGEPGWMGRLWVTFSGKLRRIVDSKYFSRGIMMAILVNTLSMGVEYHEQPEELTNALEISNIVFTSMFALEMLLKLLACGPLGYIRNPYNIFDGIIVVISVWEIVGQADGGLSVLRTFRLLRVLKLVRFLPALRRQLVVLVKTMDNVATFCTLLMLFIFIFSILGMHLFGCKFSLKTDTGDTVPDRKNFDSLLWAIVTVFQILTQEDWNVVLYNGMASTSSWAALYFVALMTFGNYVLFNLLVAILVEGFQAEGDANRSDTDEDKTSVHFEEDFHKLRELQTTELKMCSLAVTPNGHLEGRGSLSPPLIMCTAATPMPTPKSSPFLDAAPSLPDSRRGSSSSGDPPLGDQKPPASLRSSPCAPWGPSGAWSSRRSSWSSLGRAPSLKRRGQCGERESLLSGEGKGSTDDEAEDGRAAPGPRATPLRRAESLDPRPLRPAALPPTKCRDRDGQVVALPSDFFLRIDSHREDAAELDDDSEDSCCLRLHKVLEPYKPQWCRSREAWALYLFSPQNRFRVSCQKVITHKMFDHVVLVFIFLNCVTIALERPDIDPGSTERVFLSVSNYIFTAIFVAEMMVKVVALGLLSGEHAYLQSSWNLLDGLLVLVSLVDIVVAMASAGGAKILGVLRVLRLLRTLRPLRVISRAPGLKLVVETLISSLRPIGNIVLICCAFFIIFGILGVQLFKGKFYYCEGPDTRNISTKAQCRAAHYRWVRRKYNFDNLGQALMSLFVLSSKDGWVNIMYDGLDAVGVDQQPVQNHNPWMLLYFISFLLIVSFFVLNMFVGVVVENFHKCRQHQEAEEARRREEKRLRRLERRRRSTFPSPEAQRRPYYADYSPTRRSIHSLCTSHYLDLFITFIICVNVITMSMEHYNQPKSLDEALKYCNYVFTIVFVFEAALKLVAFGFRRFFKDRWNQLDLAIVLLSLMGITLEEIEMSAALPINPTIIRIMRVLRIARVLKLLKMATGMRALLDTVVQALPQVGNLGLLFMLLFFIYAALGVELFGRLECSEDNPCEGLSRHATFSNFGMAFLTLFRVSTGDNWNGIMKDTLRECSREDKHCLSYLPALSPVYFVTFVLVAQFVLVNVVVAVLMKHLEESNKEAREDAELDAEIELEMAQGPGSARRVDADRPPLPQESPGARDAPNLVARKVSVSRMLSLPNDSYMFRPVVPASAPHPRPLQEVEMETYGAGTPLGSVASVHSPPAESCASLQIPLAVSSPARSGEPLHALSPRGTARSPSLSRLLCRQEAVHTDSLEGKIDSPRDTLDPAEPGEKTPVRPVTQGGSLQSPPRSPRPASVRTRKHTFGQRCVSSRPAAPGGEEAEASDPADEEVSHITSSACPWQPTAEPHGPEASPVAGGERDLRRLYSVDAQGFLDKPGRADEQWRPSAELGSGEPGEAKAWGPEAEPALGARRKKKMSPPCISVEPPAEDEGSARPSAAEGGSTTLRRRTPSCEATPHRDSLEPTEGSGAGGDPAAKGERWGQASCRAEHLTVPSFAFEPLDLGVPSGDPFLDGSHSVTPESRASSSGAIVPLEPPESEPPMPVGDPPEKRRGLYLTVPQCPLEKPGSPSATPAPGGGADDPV
The experiment can be described thus: Intracellular calcium concentration measurement in human Cav3.2 channel expressing stable cell line (Pharmacological Test 1). To be noted: HEK293 cells stably expressing human Cav3.2, Fluo-4 AM fluorescence, KCl stimulation; read-out: Cav3.2 channel inhibitory action. It counts as cell-based. An excerpt:
(1) Construction of Human Cav3.2 Channel Expressing Stable Cell Line
A sequence in which a HindIII site and a kozak sequence (GCCACC) was provided on a 5′ side of a human Cav3.2 channel open reading frame (ORF) gene and a KpnI site was provided on a 3′ side thereof was incorporated into pcDNA3.1(+) (Thermo Fisher Scientific #V790-20), and the resultant was transfected into a HEK293 cell (ATCC No. CRL-1573) according to a protocol of FuGENE (registered trademark) HD Transfection Reagent (Promega #E2311).
(2) Method of Measuring Intracellular Calcium Concentration
The human Cav3.2 channel expressing stable cell line prepared by the test method (1) was seeded in a 96-well plate using a Dulbecco's modified Eagle's medium (DMEM medium) containing 10% fetal bovine serum (FBS), followed by culturing 37° C. for 48 hours under a 5% CO2 condition. Thereafter, the medium was removed, and each well washed with an A buffer was treated with 80 μL of a fluorescent dye solution containing a liquid mixture of 22 μg of a calcium fluorescent indicator Fluo-4 AM (Dojindo Molecular Technologies, Inc., #F311), 20 μL of dimethyl sulfoxide (DMSO), 1 μL of 10% Pluronic F-127 (Thermo Fisher Scientific #P6866), and 4 mL of the A buffer. After being left to stand for 45 minutes at room temperature under a light shielding condition, the cells were washed with a B buffer. In DMSO having the same final concentration as the test compound as a negative control, and the test compound dissolved in DMSO to have a final concentration of 0.1%, each test compound concentration solution containing the B buffer was added to each well. The cells were left to stand for additional 15 minutes at room temperature under a light shielding condition, and were measured using microplate reader EnVision (PerkinElmer Co., Ltd.) by the following method. First, after measuring background fluorescence in each well, an ionophore was added, and baseline fluorescence was measured. Thereafter, B buffer containing added KCl at a concentration of 83.8 mM was added to each well, and an increase in fluorescence due to calcium influx caused by the stimulation was measured for 10 seconds. Inhibition percentage was calculated from the maximum fluorescence increase value from the baseline, and an IC50 value was calculated by plotting a logarithmic value of the test compound concentration and inhibition activity. The measurement was performed by observing fluorescence of 510 nm emitted when the cells were irradiated with excitation light of 485 nm.
A buffer: 140 mM NaCl, 5 mM KCl, 1 mM MgCl2, 0.5 mM CaCl2, 10 mM Glucose, 10 mM HEPES, pH 7.3
B buffer: potassium equilibrium potential: −92 mV
(A change in cytosolic calcium serves as a functional read-out for many receptors and channels.)
Turning to `O=C(NC1(C(=O)Nc2ccc(F)c(C(F)(F)F)c2)CC1)[C@H]1C[C@@H]1c1nc2ccccc2[nH]1` [Example 31, 1-((1S, 2S)-2-(1H-Benzo[d]imidazol-2-yl)cyclopropane-1-carboxamido)-N-(4-fluoro-3-(trifluoromethyl)phenyl) cyclopropane-1-carboxamide], the IC50 was ≤ 0.1 µM.

With `CC(NC(=O)C1CC1c1nc2ccccc2[nH]1)C(=O)NCc1ccc(C(F)(F)F)cc1` (stereo not drawn) [Example 14, Trans-2-(1H-benzo[d]imidazol-2-yl)-N-(1-oxo-1-((4-(trifluoromethyl)benzyl)amino)propan-2-yl) cyclopropane-1-carboxamide], the IC50 lay within 0.1 to 1 µM. As to `CC(NC(=O)C1CC1c1nc2ccccc2[nH]1)C(=O)NC1CN(C(=O)OC(C)(C)C)C1` (stereo not drawn) [Example 10, tert-Butyl trans-3-(2-(2-(1H-benzo[d]imidazol-2-yl)cyclopropane-1-carboxamido)propanamido)azetidine-1-carboxylate], the IC50 is > 10 µM. For the compound `O=C(NC1(C(=O)Nc2cccc(C(F)(F)F)c2)CC1)[C@H]1C[C@@H]1c1nc2ccccc2n1C1CC1` [Example 40, 1-((1S, 2S)-2-(1-Cyclopropyl-1H-benzo[d]imidazol-2-yl)cyclopropane-1-carboxamido)-N-(3-(trifluoromethyl)phenyl) cyclopropane-1-carboxamide], the IC50 was ≤ 0.1 µM. As for `O=C(NC1(C(=O)Nc2cc(Cl)cc(Cl)c2)CC1)[C@H]1C[C@@H]1c1nc2ccccc2[nH]1` [Example 35, 1-((1S, 2S)-2-(1H-Benzo[d]imidazol-2-yl)cyclopropane-1-carboxamido)-N-(3,5-dichlorophenyl) cyclopropane-1-carboxamide], the figure is 0.1 to 1 µM; as for `CCn1c([C@H]2C[C@@H]2C(=O)NC2(C(=O)Nc3ccc(C(F)(F)F)nc3)CC2)nc2ccccc21` [Example 27, 1-((1S, 2S)-2-(1-Ethyl-1H-benzo[d]imidazol-2-yl)cyclopropane-1-carboxamido)-N-(6-(trifluoromethyl)pyridin-3-yl) cyclopropane-1-carboxamide], ≤ 0.1 µM; as for `COCC(NC(=O)[C@H]1C[C@@H]1c1nc2ccccc2[nH]1)C(=O)Nc1ccc(F)c(C(F)(F)F)c1` (single isomer, unassigned) [Example 32B], 0.1 to 1 µM.

For `O=C(NC1(C(=O)Nc2cncc(C(F)(F)F)c2)CC1)[C@H]1C[C@@H]1c1nc2ccccc2[nH]1` [Example 29, 1-((1S, 2S)-2-(1H-Benzo[d]imidazol-2-yl)cyclopropane-1-carboxamido)-N-(5-(trifluoromethyl)pyridin-3-yl) cyclopropane-1-carboxamide], the IC50 lay within 1 to 10 µM.

Regarding `O=C(NC1CC(=O)N(c2ccc(C(F)(F)F)nc2)C1)[C@H]1C[C@@H]1c1nc2ccccc2[nH]1` (single isomer, unassigned) [Example 33B], the IC50 was in the range of 1 to 10 µM.

As for `COCC(NC(=O)[C@H]1C[C@@H]1c1nc2ccccc2[nH]1)C(=O)Nc1ccc(F)c(C(F)(F)F)c1` (single isomer, unassigned) [Example 32A], the IC50 is 0.1 to 1 µM. Regarding `CC(NC(=O)C1CC1c1nc2ccccc2[nH]1)C(=O)Nc1cnccn1` (stereo not drawn) [Example 17, Trans-2-(1H-benzo[d]imidazol-2-yl)-N-(1-oxo-1-(pyrazin-2-ylamino)propan-2-yl) cyclopropane-1-carboxamide], the IC50 is > 10 µM.

Turning to `CC(NC(=O)C1CC1c1nc2ccccc2[nH]1)C(=O)N(C)c1ccc(C(F)(F)F)cc1` (single isomer, unassigned) [Example 8B, Trans-2-(1H-benzo[d]imidazol-2-yl)-N-(1-(methyl(4-(trifluoromethyl)phenyl)amino)-1-oxopropan-2-yl) cyclopropane-1-carboxamide], the IC50 is 1 to 10 µM.

Take `CCCc1ccc(NC(=O)C(C)NC(=O)C2CC2c2nc3ccccc3[nH]2)cc1` (single isomer, unassigned) [Example 2A, Trans-2-(1H-benzo[d]imidazol-2-yl)-N-(1-oxo-1-((4-propylphenyl)amino)propan-2-yl) cyclopropane-1-carboxamide]: the IC50 lay in the range of 0.1 to 1 µM. As for `O=C(NC1CC(=O)N(c2ccc(C(F)(F)F)nc2)C1)[C@H]1C[C@@H]1c1nc2ccccc2[nH]1` (single isomer, unassigned) [Example 33A], the figure is 1 to 10 µM. In the case of `O=C(NC1CCN(c2ccc(C(F)(F)F)cc2)C1=O)[C@H]1C[C@@H]1c1nc2ccccc2[nH]1` (single isomer, unassigned) [Example 23B], the IC50 was in the range of 0.1 to 1 µM. As for `O=C(NC1(C(=O)Nc2ccc(C(F)(F)F)cc2F)CC1)[C@H]1C[C@@H]1c1nc2ccccc2[nH]1` [Example 28, 1-((1S, 2S)-2-(1H-Benzo[d]imidazol-2-yl)cyclopropane-1-carboxamido)-N-(2-fluoro-4-(trifluoromethyl)phenyl) cyclopropane-1-carboxamide], the figure is 0.1 to 1 µM; as for `CC(NC(=O)C1CC1c1nc2ccccc2[nH]1)C(=O)N(C)c1ccc(C(F)(F)F)cc1` (single isomer, unassigned) [Example 8A, Trans-2-(1H-benzo[d]imidazol-2-yl)-N-(1-(methyl(4-(trifluoromethyl)phenyl)amino)-1-oxopropan-2-yl) cyclopropane-1-carboxamide], 0.1 to 1 µM. As for `O=C(NC1(C(=O)Nc2ccccc2C(F)(F)F)CC1)[C@H]1C[C@@H]1c1nc2ccccc2[nH]1` [Example 25, 1-((1S, 2S)-2-(1H-Benzo[d]imidazol-2-yl)cyclopropane-1-carboxamido)-N-(2-(trifluoromethyl)phenyl) cyclopropane-1-carboxamide], the IC50 fell in the range of 1 to 10 µM. On to `O=C(NC1(C(=O)Nc2cccc(C(F)(F)F)c2F)CC1)[C@H]1C[C@@H]1c1nc2ccccc2[nH]1` [Example 41, 1-((1S, 2S)-2-(1H-Benzo[d]imidazol-2-yl)cyclopropane-1-carboxamido)-N-(2-fluoro-3-(trifluoromethyl)phenyl) cyclopropane-1-carboxamide], for which the IC50 fell in the range of 0.1 to 1 µM. `CC(NC(=O)C1CC1c1nc2ccccc2[nH]1)C(=O)Nc1ccc(C(C)(C)C)cc1` (single isomer, unassigned) [Example 7B, Trans-2-(1H-benzo[d]imidazol-2-yl)-N-(1-((4-(tert-butyl)phenyl)amino)-1-oxopropan-2-yl) cyclopropane-1-carboxamide]: the IC50 lay within 0.1 to 1 µM. Take `CC(C)N(C(=O)CNC(=O)[C@H]1C[C@@H]1c1nc2ccccc2[nH]1)c1ccc(C(F)(F)F)nc1` [Example 30, (1S, 2S)-2-(1H-Benzo[d]imidazol-2-yl)-N-(2-(isopropyl (6-(trifluoromethyl)pyridin-3-yl)amino)-2-oxoethyl) cyclopropane-1-carboxamide]: the IC50 is > 10 µM. Regarding `O=C(CNC(=O)[C@H]1C[C@@H]1c1nc2ccccc2[nH]1)Nc1cccc(C(F)(F)F)c1` [Example 39, (1S, 2S)-2-(1H-Benzo[d]imidazol-2-yl)-N-(2-oxo-2-((3-(trifluoromethyl)phenyl)amino)ethyl) cyclopropane-1-carboxamide], the IC50 was ≤ 0.1 µM.
